Measurements as given in patent publication US8242240B2, “Anti-inflammatory compounds and uses thereof” (Yale University, priority 2000, dated 2012).

What was measured:
[1] = molecular target: T1, endogenous IKK complex (Homo sapiens, UniProt Q9Y6K9); experiment: Anti-NEMO immunoprecipitation of the IKK complex from peptide-treated HeLa cells; type: cell-based; settings: peptide 200 μM, anti-NEMO IP, anti-IKKβ blot
T1 construct: wild-type but not mutant disrupted the formation of the endogenous IKK complex; endogenous in cells; host or cells: HeLa
T1 sequence (Q9Y6K9 whole entry, one chain of several): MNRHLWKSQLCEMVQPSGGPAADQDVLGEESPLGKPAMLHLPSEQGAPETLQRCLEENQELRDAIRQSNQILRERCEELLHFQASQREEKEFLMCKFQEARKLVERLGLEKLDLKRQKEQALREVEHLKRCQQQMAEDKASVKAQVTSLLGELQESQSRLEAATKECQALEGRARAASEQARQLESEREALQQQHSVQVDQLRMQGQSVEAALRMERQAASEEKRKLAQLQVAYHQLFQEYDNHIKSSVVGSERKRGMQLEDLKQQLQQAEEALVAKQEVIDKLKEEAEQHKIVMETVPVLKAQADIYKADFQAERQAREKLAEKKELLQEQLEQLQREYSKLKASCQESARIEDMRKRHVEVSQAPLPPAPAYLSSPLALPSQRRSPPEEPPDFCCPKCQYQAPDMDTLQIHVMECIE
Protocol: (A) Sequences of wild-type (SEQ ID NO:18) and mutant (SEQ ID NO:19 forms of IKKβ NBD peptide. (B) GST-pull-down analysis was performed using either GST-NEMO-in vitro translated IKKβ (upper panel) or GST-IKKβ-(644-756)-in vitro translated NEMO (lower panel). The assay was performed in the absence (no peptide) or presence of increasing concentrations ([…], 500 or 1000 μM) of either mutant (MUT) (SEQ ID NO:19) or wild-type (WT) NBD (SEQ ID NO:18). (C) HeLa cells were incubated with either peptide (200 μM) for the times indicated. Following lysis, the IKK complex was immunoprecipitated using anti-NEMO and the resulting immunoblot probed with anti-IKKβ. (D) Gel image showing anti-NEMO immunoprecipitation. (E) Gel image showing anti-FLAG immunoblot. (F) HeLa cells were incubated for three hours with increasing concentrations: 50, 100 or 200 μM) of each peptide followed by treatment for fifteen minutes with TNFα (10 ng/ml) as indicated (+). Following lysis, nuclear extracts were made and 10 μg of protein from each sample was used for EMSA using a specific [^32P]-labeled κB-site probe. (G) Gel image showing anti-Phospho-C-Jun immunoblot and anti-β-Actin immunoblot. […] Subsequently the cells were either treated with TNFα (10 ng/ml) as indicated (toe panel) or left untreated (bottom panel) for a further four hours after which NF-κB activation was measured by luciferase assay. […]

[2] = test system: E-selectin; experiment: E-selectin expression in primary HUVEC (FACS); type: cell-based, human; settings: for TNFα-induced expression of E-selectin: peptide 100 μM 2 h, TNFα 10 ng/ml 6 h
Protocol: (A) Primary HUVEC were pre-incubated for two hours with wild-typo (middle) or mutant (bottom) NBD peptides (100 μM) then stimulated with TNFα (10 ng/ml) for a further six hours. Control cells received no peptide. Cells were stained with either anti-E-selectin (H4/18) or a non-binding control antibody (K16/16) and expression was measured FACS (FACSort, Becton Dickinson). The profiles show E-selectin staining in the absence (shaded) and presence (solid line) of TNFα and control antibody staining under the sane conditions (dashed line, no TNFα; dotted line, TNFα). (B) % control release of NO2— in various samples. (C) PMA-induced ear edema in mice topically treated with either vehicle (VEH), dexamethasone (DEX) or NBD peptides was induced and measured as described in Example 8. Data are presented as mean differences in ear thickness ±SD (*=p<0.05 compared with both untreated control and vehicle). (D) The effects of the NBD peptide compared with the effect of dexamethasone (DEX) on Zymosan (ZYM)-induced peritonitis in mice were determined as described again in Example 8. Control mice were injected with phosphate-buffered saline (PBS).
Many proteins involved in the initiation and maintenance of inflammatory responses require NF-κB activation for induced expression of their genes (Ghosh et al., (1998) Annu. Rev. Immunol. 16, 225-260; May & Ghosh, (1998) Immunol. Today 19, 80-88). One such protein, E-selectin, is a leukocyte adhesion molecule expressed on the luminal surface of vascular endothelial cells after activation by pro-inflammatory stimuli such as IL-1 or TNFα (Pober et al., (1986) J. Immunol. […], 1680-1687; Bevilacqua et al., (1987) Proc. Natl. Acad. Sci. USA 84, 9238-9242; Collins et al., (1995) FASEB J. 9, 899-909). Expression of E-selectin and other NF-κB-dependent adhesion molecules is crucial for the arrest and recruitment of leukocytes into sites of acute and chronic inflammation. […]

[3] = test system: Mouse bone marrow cells; experiment: RANKL-induced osteoclast differentiation of bone marrow cells; type: cell-based; settings: M-CSF 20 ng/ml + RANKL 100 ng/ml, six days, peptide 6.25, 12.5 and 25 mM
Excerpt: Osteoporosis is a severely debilitating disease characterized by an extensive loss of bone mass that is mediated by osteoclast-dependent bone resorbtion (Suda et al., (1992) Endocr. Rev. 13, 66-80; Suda et al., (1999) Endocr. Rev. 20, 345-357). It is therefore possible that selective inhibition of NF-κB activation in osteoclast precursor cells would prevent osteoclast differentiation and provide the basis for therapeutically effective drugs for the treatment of osteoporosis. Therefore the effect of the NBD peptides on osteoclast differentiation was tested using a previously described in vitro model (Jimi et al., (1999) Exp. Cell Res. 247, 84-93). Mouse bone marrow cells plated into 48-well tissue culture trays were incubated with human macrophage-colony stimulating factor (M-CSF; 20 ng/ml) and human RANKL (100 ng/ml) for six days in the absence or presence of various concentrations ([…]) of either mutant or wild-type NBD peptide. The cells were then fixed and stained for the osteoclast phenotypic marker tartrate-resistant acid phosphatase (TRAP) and TRAP-positive mutinucleated cells containing more than three nuclei were counted as osteoclasts. Triplicate samples were counted and results were calculated as means±SD.

disruption of the formation of the endogenous IKK complex [1] | Substance | E-selectin expression in the absence of TNFα ([2]; peptide 100 μM) | TNFα-induced expression of E-selectin [2] | inhibition of osteoclast differentiation (TRAP-positive multinucleated cells) ([3]; listed as wild type) | inhibition of osteoclast differentiation (TRAP-positive multinucleated cells) ([3]; listed as wild-type) | inhibition of osteoclast differentiation (TRAP-positive multinucleated cells) [3]
disrupted | [DRQIKIWFQNRRMKWKK]TALDWSWLQTE (DRQIKIWFQNRRMKWKKTALDWSWLQTE; Description of Unknown: Unknown wildtype NBD peptide) [wild-type NBD peptide] | induced low level expression | significantly reduced | dose-dependently inhibited | dose dependent inhibition | –
not | [DRQIKIWFQNRRMKWKK]TALDASALQTE (DRQIKIWFQNRRMKWKKTALDASALQTE; Description of Artificial Sequence: Synthetic Mutant NBD peptide) [identical to wild-type NBD peptide except W739 and W741 mutated to alanine, reference compound] | – | not | – | – | not
